Experimental data reported in US10821152B2, “Methods, agents and compositions for treatment of inflammatory conditions” (Betanien Hospital, priority 2014, dated 2020).
Non-standard residues stand in square brackets, D forms with d. Residues, ends and D or L forms follow the SMILES beside them. *: point of attachment. dPhe(4-NHCONH2) = NC(=O)Nc1ccc(C[C@@H](N)C(=O)O)cc1; Dihydroorotyl(S) = O=C1C[C@@H](C(=O)*)NC(=O)N1; dPhe(4-Cl) = N[C@H](Cc1ccc(Cl)cc1)C(=O)O; Phe(4-NH2) = Nc1ccc(C[C@H](N)C(=O)O)cc1; d2Nal = N[C@H](Cc1ccc2ccccc2c1)C(=O)O; Lys(iPr) = CC(C)NCCCC[C@H](N)C(=O)O; d3Pal = N[C@H](Cc1cccnc1)C(=O)O

Key:
Assay type in all cases: in vivo, human
[1] = system: patient with lithium induced psoriasis; test: Treatment of psoriasis (PASI, serum uric acid, testosterone)
Protocol: The PASI score is a standardized score for assessing disease activity in psoriasis.
He therefore received testosterone supplementation in the form of Testogel containing 50 mg of testosterone, first daily; thereafter every 3 days to maintain testosterone levels within the normal range.
There are very few trials of lithium induced psoriasis. One trial examined 15 patients with psoriasis who were taking lithium.

[2] = system: patient with systemic lupus erythematosus; test: Treatment of lupus patient with degarelix
Excerpt: The patient has a medical history of a multimorbid patient. Systemic lupus erythematosus (SLE) was diagnosed in 1988 based on Raynauds, skin changes, arthralgia, high titre lupus anticoagulant, ANA, SSA, and SSB. Chilblain type changes in hands and feet (FIGS. 6-8). […] The patient suffered cardiac arrest in 2012, coronary stenosis was observed. The patient had kidney failure since 2012, required dialysis, stabilized creatinine around 150, osteoporosis, COPD, and is a smoker.
By September 2014, we had no treatment options left. Therefore, we decided to offer […] degarelix. GnRH antagonists have shown anti-inflammatory effects and therefore we considered that degarelix, a depot GnRH antagonist, may have a therapeutic effect in lupus. • Sep. 15, 2014, […] received […] loading dose of degarelix, 240 mg sc. Assessment of Response
Proteinuria decline is linked to improved lupus nephritis outcomes. Korbet et al studied 61 patients in a controlled trial comparing standard therapy with plasmapheresis for severe lupus nephritis. […] They had constant, increasing proteinuria in 2014.

peripheral GnRH = test: Peripheral GnRH levels by ELISA in patients with autoimmune diseases
Excerpt: (§1) We analysed peripheral GnRH levels in patients with various autoimmune diseases using ELISA. […] Due to the nature of ELISA assays, the concentration in pg/mL should not necessarily be regarded as absolute, and may be interpreted as relative.

[3] = as above; conditions: RA Pt A
Excerpt: as §1

[4] = system: patient with seropositive rheumatoid arthritis; test: Treatment of RA using Degarelix 40 mg weekly
Protocol: • person with seropositive rheumatoid arthritis with disease duration of 22 years. • Fulfilled ACR 2010 classification criteria for rheumatoid arthritis. Experimental Treatment • Had tried most therapies available (for example: Humira, Remicade, Enbrel, Actemra, several disease modifying anti-rheumatic drugs), previously without effect or intolerable side effects. • Offered experimental GnRH antagonist therapy, Degarelix 40 mg every week with 240 mg loading dose at baseline. Assessment of Response • Disease activity score (DAS) reduction from 7.3 to 6.7 at 2 weeks. • A DAS reduction of 0.6 units is defined as a clinical response to treatment (1). • Their ESR has decreased from 62 mm to 38 mm, with a decrease in their CRP from 87 mg/L to 67 mg/L.

Q: What does the source list for `CC(=O)N[C@H](Cc1ccc2ccccc2c1)C(=O)N[C@H](Cc1ccc(Cl)cc1)C(=O)N[C@H](Cc1cccnc1)C(=O)N[C@@H](CO)C(=O)N[C@@H](Cc1ccc(NC(=O)[C@@H]2CC(=O)NC(=O)N2)cc1)C(=O)N[C@H](Cc1ccc(NC(N)=O)cc1)C(=O)N[C@@H](CC(C)C)C(=O)N[C@@H](CCCCNC(C)C)C(=O)N1CCC[C@H]1C(=O)N[C@H](C)C(N)=O` [Degarelix] (Ac-[d2Nal][dPhe(4-Cl)][d3Pal]S[Phe(4-NH2)](Dihydroorotyl(S))[dPhe(4-NHCONH2)]L[Lys(iPr)]P[dA]-NH2)?
A: testosterone levels (normal 8-35 nmol/L) ([1]; after the first week): < 1 nmol/L; improvement in psoriasis ([1]; at 6 months): stable; Psoriasis Area Severity Index (PASI) score ([1]; baseline): 53.6; serum uric acid (230-480 umol/L) ([1]; baseline): 485 µmol/L; testosterone levels (normal 8-35 nmol/L) ([1]; before therapy): 12 nmol/L; PASI reduction ([1]; by 8 weeks): 23%; serum uric acid (230-480 umol/L) ([1]; by 8 weeks): 432 µmol/L; testosterone levels (normal 8-35 nmol/L) ([1]; week 8, under testosterone substitution (Testogel)): 9 nmol/L; ANA (<1) ([2]; 07.11.14): 26↑; FSH (<12) ([2]; 07.11.14): <0.1; LH (<12) ([2]; 07.11.14): <0.3; Total urinary protein ([2]; 07.11.14): 0.17 g/L; ANA (<1) ([2]; 14.10.14): 28↑; FSH (<12) ([2]; 14.10.14): <0.1; Total urinary protein ([2]; 14.10.14): 0.15^2 g/L; FSH (<12) ([2]; 15.09.14 (day of loading dose)): 14↑; LH (<12) ([2]; 15.09.14 (day of loading dose)): 11; Total urinary protein ([2]; 15.09.14 (day of loading dose)): 0.78↑ g/L; ANA (<1) ([2]; 15.09.14 (day of loading dose), out of range): >32↑; FSH (<12) ([2]; 23.09.14): 2; LH (<12) ([2]; 23.09.14): <0.3; Total urinary protein ([2]; 23.09.14): 0.75↑ g/L; proteinuria ([2]; at 2 months): in remission; morning pain ([2]; before treatment): 3.5 h; proteinuria ([2]; by 1 month): complete remission; morning pain ([2]; by 8 weeks): 0 h; morning pain ([2]; by day 5): 1.5 h; morning pain ([2]; by day 10): 0 h; ulcers on hands and feet ([2]; by day 10 of treatment): several ulcers had healed; ANA (<1) ([2]; column 23.09.14 (25.09.14)): 31↑; peripheral GnRH (peripheral GnRH; Multiple Sclerosis Patient B, after 1 month): 210 pg/mL; peripheral GnRH (peripheral GnRH; Multiple Sclerosis Patient B, baseline): 318 pg/mL; peripheral GnRH (peripheral GnRH; Psoriasis Patient C, after 3 months): 274 pg/mL; peripheral GnRH (peripheral GnRH; Psoriasis Patient C, baseline): 300 pg/mL; peripheral GnRH (peripheral GnRH; RA Pt A, after 3 months, 240 mg loading, 80 mg every 2 weeks): 359 pg/mL; peripheral GnRH (peripheral GnRH; RA Pt A, baseline): 394 pg/mL; CRP ([3]; after 3 months): 54 mg/L; DAS score ([3]; after 3 months): 4.2; CRP ([3]; baseline): 142 mg/L; DAS score ([3]; baseline): 8.6; Disease activity score (DAS) ([4]; at 2 weeks, 240 mg loading, 40 mg weekly): 6.7; CRP ([4]; baseline): 87 mg/L; Disease activity score (DAS) ([4]; baseline): 7.3; ESR ([4]; baseline): 62 mm; CRP ([4]; on Degarelix 40 mg weekly): 67 mg/L; ESR ([4]; on Degarelix 40 mg weekly): 38 mm
